The values that follow come from US8017596B2, “Phosphonates useful as modulators of T-γ-9-δ-2 activity” (Innate Pharma, S.A., priority 2001, dated 2011).

In data set [1] the test system is Vγ9/Vδ2 lymphocytes. Briefly: Vγ9/Vδ2 lymphocyte expansion (flow cytometry immunofluorescence, anti-CD3 / anti-Vγ9). It is filed as cell-based, human. The note with it: PBMC after 5 days in culture, 100 μM; FIG. 2E-2L. The procedure:
FIGS. 2A-2L. In order to verify selectivity with respect to Vγ9/Vδ2 lymphocytes of molecule activating potential, PBMCs, were cultured and analysed after 5 days of culture in the presence of various molecules by flow cytometry immunofluorescence. For this, the cells are retrieved, washed in PBS and then incubated in the presence of human anti-CD3 monoclonal antibodies conjugated with fluoroscein (FITC, FL1) and human anti-Vγ9 coupled with biotin and then detected with Streptavidine-phycoerythrin conjugate (ST-PE, FL2). The markings are produced by incubating for 30 minutes with 0.5 μg of each antibody per million cells. The analysis is performed after washing on a FACScalibur-SORT cell analyser-sorter cytofluorimeter (Becton Dickinson, Mountain View, CA). FIG. 2A gives the profile (size FSC and granularity SSC) of the cells studied. […] FIGS. 2D to 2L show a PBMC after 5 days in culture in the presence of the molecule tested. FIG. 2D: cells stimulated with 1μg/ml phytohaemagglutinin A (PHA). FIG. 2E: cells stimulated with 100μM isoprenylpyrophosphate (IPP). FIG. 2F: cells stimulated with 100μM 1-pyrophosphono-4-methylpenta-1,3-diene. FIG. 2G: cells stimulated with 100μM (E) 1-pyrophosphono-penta-1,3-diene. FIG. 2H: cells stimulated with 100μM (E) 1-pyrophosphono-buta-1,3-diene, FIG. 2I: cells stimulated with 100μM 5-pyrophosphono-2-methylpent-2-ene. FIG. 2J: cells stimulated with 100μM α,γ-di-[4-methylpent-4-enyl]-triphosphonate. FIG. 2K: cells stimulated with 100μM 5-pyrophosphono-2methylpentene. FIG. 2L: cells stimulated with 100μM 5-triphosphono-2-methylpentene.
In order to verify selectivity with respect to Vγ9/Vδ2 lymphocytes of the molecule activating potential, PBMCs, cultured under the conditions described above were analysed after 5 days of culture in the presence of various molecules by flow cytometry immunofluorescence. For this, the cells are retrieved, washed in PBS and then incubated in the presence of human anti-CD3 monoclonal antibodies conjugated with fluoroscein (FITC, FL1) and human anti-Vγ9 coupled with biotin and then detected with Streptavidine-phycoerythrin conjugate (ST-PE, FL2). The markings are produced by incubating for 30 minutes with 0.5 μg of each antibody per million cells. The analysis is performed after washing on a FACScalibur-SORT cell analyser-sorter cytofluorimeter (Becton Dickinson, Mountain View, Calif.). The results are processed using Cellquest software.
FIG. 2A gives the profile (size FSC and granularity SSC) of the cells studied. […] FIGS. 2D to 2L show a PBMC after 5 days in culture in the presence of the molecule tested.

Data set [2] relates to Human peripheral blood lymphocytes (PBMC). Briefly: Human peripheral blood T lymphocyte proliferation activation (3H-thymidine incorporation, stimulation index). The conditions noted are these: concentrations 0.001 μM to 500 μM, 4 days then 24 hours 3H-TdR, FIG. 1.
Procedure: Human peripheral blood lymphocytes (PBMC) are isolated from donors' by centrifugation on Ficoll-Hypaque. They are then placed in culture in 96-well plates at a rate of 2.10^6 cells/ml in 200 μl of RPMI 1640 medium (Gibco) containing 10% foetal calf serum or human AB serum, 20 mM of Glutamine, 10 mM Hepes, 1 mM of sodium pyruvate, 10 μg/ml of penicillin-streptomycin. The molecules under test are then added at final concentrations ranging from 0.001 μM to 500 μM. Each condition is produced in triplicate. The molecules are diluted in isotonic phosphate buffer (PBS). The cells are then incubated at 37° C.-5% CO2 for 4 days. Cell proliferation is then determined by measuring the incorporation of thymidine ^3H (^3H-TdR). For this, 0.5 μCi of ^3H-TdR is added per culture. After 24 hours, the cells are retrieved on Cell Harvester (Packard Instruments) and the radioactivity incorporated in high molecular weight material is counted using a Rack-Beta counter (Packard).
The stimulation indices are evaluated as follows:
In all the experiments, isoprenyl pyrophosphonate (IPP) is selected as the reference.
Data set [3] is described as follows: Stability in human AB serum followed by phosphorus 31 NMR. The conditions noted are these: three days of incubation; for degradation of the molecule after incubation in serum: human AB serum, 31P NMR. Here is the method: To 0.5 ml of each solution, 500 μl of human AB serum was added and the mixture were left to incubate. After three days of incubation, the degradation of the molecule is measured by phosphorus 31 NMR.

In data set [4] the test system is human γ9δ2 T lymphocytes. The conditions noted are these: in vitro; literature (Tanaka et al. 1994; Kunzmann et al. 2000); cited from earlier work.
Where [5] appears, read: 0.1 mole/liter in D2O, 0.5 ml + 500 μl human AB serum.

Turning to “5-pyrophosphono-2-methylpent-2-ene [Compound M4]”, the “Vγ9/Vδ2 T cell population in stimulated cultures” value (“Vγ9/Vδ2 T cell population” below) in data set [1] is “high increase”. In addition, the “inducing T lymphocyte proliferation (proliferation index) compared with IPP” value in data set [2] is “more effective than IPP”. As for “5-pyrophosphono-2-methylpentene [Compound M6]”, the “Vγ9/Vδ2 T cell population” value in data set [1] is on record as “high increase”. Moreover, the “inducing T lymphocyte proliferation (proliferation index) compared with IPP” value in data set [2] is listed as “more effective than IPP”.

Regarding “5-triphosphono-2-methylpentene [Compound M7]”, in data set [1], the “Vγ9/Vδ2 T cell population” value is on record as “high increase”. Moreover, the “inducing T lymphocyte proliferation (proliferation index) compared with IPP” value in data set [2] is “more effective than IPP”. On to `C=C(C)CCO[P@@](=O)(O)OP(=O)(O)O` [IPP, isopentenyl pyrophosphate, reference compound], for which the “integral of the 31P NMR peak of the intact molecule” value in data set [3] (setting [5]) came to 1.2. In addition, the “degradation of the molecule after incubation in serum” value in data set [3] was “significant degradation”. Take `NCCCC(O)(P(=O)(O)O)P(=O)(O)O` [alendronate]: in data set [4], the “γ9δ2 T lymphocyte proliferation” value is “stimulants of γ9δ2 T lymphocyte proliferation”. Regarding `CCCCCN(C)CCC(O)(P(=O)(O)O)P(=O)(O)O` [ibandronate], the “γ9δ2 T lymphocyte proliferation” value in data set [4] is “stimulants of γ9δ2 T lymphocyte proliferation”. Regarding `CCOP(=O)(O)O` [monoethylphosphate], the “γ9δ2 T lymphocyte proliferation” value in data set [4] was “induce in vitro, the proliferation of γ9δ2 T lymphocytes”. As to `NCCC(O)(P(=O)(O)O)P(=O)(O)O` [pamidronate], the “γ9δ2 T lymphocyte proliferation” value in data set [4] was “stimulants of γ9δ2 T lymphocyte proliferation”. “(E) 1-pyrophosphono-4-methylpenta-1,3-diene [Compound M1]”: the “Vγ9/Vδ2 T cell population” value in data set [1] was “high increase”. In addition, the “inducing T lymphocyte proliferation (proliferation index) compared with IPP” value in data set [2] is reported as “more effective than IPP”. Turning to “(E) 1-pyrophosphono-buta-1,3-diene [Compound M3]”, the “Vγ9/Vδ2 T cell population” value in data set [1] is listed as “high increase”. The “inducing T lymphocyte proliferation (proliferation index) compared with IPP” value in data set [2] is recorded as “more effective than IPP”.

Regarding “(E) 1-pyrophosphono-penta-1,3-diene [Compound M2]”, the “Vγ9/Vδ2 T cell population” value in data set [1] is listed as “high increase”. Also, in data set [2], the “inducing T lymphocyte proliferation (proliferation index) compared with IPP” value is “more effective than IPP”. For isopentenyl pyrophosphonate [IPPN], in data set [3] (setting [5]), the “integral of the 31P NMR peak of the degradation product (isoprenyl phosphate / isoprenyl phosphonate)” value is 1.1 and the “integral of the 31P NMR peak of the intact molecule” value is recorded as 96. Moreover, in data set [3], the “degradation of the molecule after incubation in serum” value was “changed negligibly”. As to “α,γ-di-[4-methylpent-4-enyl]-triphosphonate [Compound M5]”, the “Vγ9/Vδ2 T cell population” value in data set [1] is “high increase”. Besides, the “inducing T lymphocyte proliferation (proliferation index) compared with IPP” value in data set [2] was “more effective than IPP”.
